Test results as given in patent US20260191838A1, “COMBINATIONS COMPRISING A MENIN-MLL INHIBITOR AND A BCL-2 INHIBITOR” (JANSSEN PHARMACEUTICA NV, priority 2022, published 2026).

Key:
MOLM-13 cells = assay: In vitro proliferation (Cell Titer Glo), Compound 51 with decitabine and venetoclax, MOLM-13; assay type: cell-based, human; set-up: key to maxR test call (additive / antagonism / synergy): no asterisk: absence of any asterisk indicates an additive effect; antagonism is indicated by “*”; synergy is indicated by “**”; Effect size (BIGL, HSA null model): scale not given here
Experimental: 3a) In Vitro Proliferation—Menin-MLL Inhibitor in Combination with a DNA Hypomethylating Agent (Decitabine) and a BCL2 Inhibitor (Venetoclax)
The effect of Compound 51 in combination with decitabine and venetoclax was determined in proliferation assays.
AML cell lines MOLM-13, OCI-AML3 and MV4-11 were purchased from DSMZ. MOLM-13 were grown in RPMI medium supplemented with 10% Fetal Bovine Serum (FBS) and 1% penicillin/streptomycin. MV4-11 cells were grown in IMDM medium supplemented with 10% FBS and 1% penicillin/streptomycin. OCI-AML3 cells were cultured in 80-90% alpha-MEM (without ribo- and deoxyribonucleosides)+10-20% FBS. All cell lines were cultured at 37° C. in 5% CO2 atmosphere.
AML cell lines (10×10^3 cells/well) were seeded in 96-well plates and grown for 6 days in serum (10%)-containing medium in the presence or absence of inhibitors at the indicated concentrations. Proliferation was analyzed by means of a Cell Titer Glo assay using the CellTiter 96 Aqueous One Solution Cell Proliferation Assay (Promega, Madison, WI, USA), according to the manufacturer's instructions. Data are mean with standard deviation from two to four independent experiments in technical triplicates.
R-based Biochemically Intuitive Generalized Loewe (BIGL) model implemented with a highest single agent (HSA) null model. Specifically, the BIGL methodology was applied to calculate drug-drug interactions (Van der Borght, K., Tourny, A., Bagdziunas, R. et al. BIGL: Biochemically Intuitive Generalized Loewe null model for prediction of the expected combined effect compatible with partial agonism and antagonism. Sci Rep 7, 17935 (2017); Thas, O., Tourny, A., Verbist, B., Hawinkel, S., Nazarov, M., Mutambanengwe, K., & Bijnens, L. Statistical detection of synergy: new methods and a comparative study. Pharmaceutical Statistics (2021)).
Synergy matrix results of the BIGL analysis of the cell line data with HSA as mean model calculated on the basis of the cellular metabolic activity using Cell Titer-Glo assay. Bootstrap confidence intervals are indicated. Effect sizes and their confidence intervals are shown. […] No significant average effect if zero is included in the interval.

[1] = tested on: MOLM-13 tumors in NSG mice; assay: Efficacy (survival) in disseminated MOLM-13 (KMT2A-rearranged) IV model in NSG mice; assay type: in vivo
Experimental: 4) Efficacy of Menin-KMT2A Inhibitor in Combination with Venetoclax, and Optionally, Azacitidine, in MOLM-13 (KMT2A-Rearranged) IV Model in NSG Mice
Compound 51 was formulated in purified pyrogen-free deionized water, pH 4.0 and prepared to reach a total volume of 8 mL/kg. Doses were adjusted by individual body weight each day. Working stocks of Compound 51 were prepared once per week for each study and stored at 25° C.
Female NSG (NOD.Cg-Prkdc^scid Il2rg^tm1Wj1/SzJ) mice were used when they were approximately 6 to 8 weeks of age and weighed approximately 25 g. All animals could acclimate and recover from any shipping-related stress for a minimum of 7 days prior to experimental use. Autoclaved water and irradiated food were provided ad libitum, and the animals were maintained on a 12 hour light and dark cycle. Cages, bedding, and water bottles were autoclaved before use and changed weekly. The tissue culture and cell injection reagents are summarized below in Table 5.
Tumor Model and Cell Culture Method
Human AML MOLM-13 cells were cultured at 37° C., 5% CO2 in the indicated complete culture media (RPMI 1640+10% HI-FBS+2 mM L-glutamine+50 μg/ml Gentamycin). Cells were harvested while in logarithmic growth and resuspended in cold (4° C.) Roswell Park Memorial Institute (RPMI) 1640 in serum-free medium.
For the disseminated MOLM-13 model, each mouse received 1×10^5 cells via IV injection in a total volume of 0.2 mL using a 26-gauge needle.
Day 0 is the day of tumor cell implantation and study initiation.
Mice bearing IV MOLM-13 xenograft tumors were randomly assigned to treatment groups 5 days post-tumor cell engraftment.
Animals were monitored daily for clinical signs related to either compound toxicity or tumor burden (i.e., hind limb paralysis, lethargy, etc.).
For survival assessment, results were plotted as the percentage survival against days post tumor implant. Negative clinical signs and/or ≥20% body weight loss was used as a surrogate endpoint for death. Median survival was determined utilizing Kaplan-Meier survival analysis. The percent increased life span (ILS) was calculated as: ((median survival day of treated group−median survival day of control group)/median survival day of control group)×100. Animals failing to reach the surrogate endpoint due to adverse clinical signs or death unrelated to treatment were censored for the survival assessment. As defined by NCI criteria, ≅25% ILS is considered biologically significant. (Johnson J I et al. Br J Cancer. 2001. 84(10), 1424-1431).
Survival and body weight data were graphically represented utilizing Prism (Version 9). Statistical significance for body weights was evaluated as described above. Statistical significance was evaluated for Kaplan-Meier survival plots comparing therapeutic treatment group vs. appropriate vehicle-treated control using log-rank (Mantel-Cox) test in R software version 3.4.2. Differences between groups were considered significant when the p value was ≤0.05.
The disseminated MOLM-13 model described above was used to examine the efficacy of menin-KMT2A-inhibitor (formulated as described above) in combination with venetoclax (formulated in polyethylene glycol [PEG]-400/Phosal50/dimethyl sulfoxide [DMSO]), and optionally azacitidine (formulated in 0.9% saline). Treatment with compound(s) was initiated 5 days after cell injection. Compound 51 was given in the morning, and venetoclax or azacitidine was given in the afternoon, approximately 6-8 hr apart.

[2] = Compound 51 0.05 μM, Decitabine 0.015 μM, Venetoclax 0.001 μM
[3] = Compound 51 0.05 μM, Decitabine 0.35 μM, Venetoclax 0.002 μM
[4] = Compound 51 0.1 μM, Decitabine 0.015 μM, Venetoclax 0.001 μM
[5] = Compound 51 0.1 μM, Decitabine 0.35 μM, Venetoclax 0.002 μM
[6] = Compound 51 1 μM, Decitabine 0.35 μM, Venetoclax 0.002 μM
[7] = Compound 51 10 μM, Decitabine 0.015 μM, Venetoclax 0.001 μM
[8] = Compound 51 10 μM, Decitabine 0.35 μM, Venetoclax 0.002 μM

CC(=O)N1CCC(CN2CC[C@@H](Cc3cn(-c4ccc(F)cc4C(=O)N(C)C(C)C)c4cncc(C)c34)C2)CC1 [Compound 51]
Effect size (BIGL, HSA null model) (MOLM-13 cells; Compound 51 0.001 μM, Decitabine 0.0015 μM, Venetoclax 0.0001 μM): −0.04
Effect size (BIGL, HSA null model) (MOLM-13 cells; Compound 51 0.001 μM, Decitabine 0.015 μM, Venetoclax 0.001 μM): −0.05
Effect size (BIGL, HSA null model) (MOLM-13 cells; Compound 51 0.001 μM, Decitabine 0.35 μM, Venetoclax 0.002 μM): 0.01
Effect size (BIGL, HSA null model) (MOLM-13 cells; Compound 51 0.001 μM, Decitabine 1.5 μM, Venetoclax 0.02 μM): −0.04
Effect size (BIGL, HSA null model) (MOLM-13 cells; Compound 51 0.001 μM, Decitabine 3 μM, Venetoclax 0.2 μM): −0.03
Effect size (BIGL, HSA null model) (MOLM-13 cells; Compound 51 0.01 μM, Decitabine 0.0015 μM, Venetoclax 0.0001 μM): −0.02
Effect size (BIGL, HSA null model) (MOLM-13 cells; Compound 51 0.01 μM, Decitabine 0.015 μM, Venetoclax 0.001 μM): −0.17
Effect size (BIGL, HSA null model) (MOLM-13 cells; Compound 51 0.01 μM, Decitabine 0.35 μM, Venetoclax 0.002 μM): −0.1
Effect size (BIGL, HSA null model) (MOLM-13 cells; Compound 51 0.01 μM, Decitabine 1.5 μM, Venetoclax 0.02 μM): −0.05
Effect size (BIGL, HSA null model) (MOLM-13 cells; Compound 51 0.01 μM, Decitabine 3 μM, Venetoclax 0.2 μM): −0.03
Effect size (BIGL, HSA null model) (MOLM-13 cells; Compound 51 0.05 μM, Decitabine 0.0015 μM, Venetoclax 0.0001 μM): −0.03
Effect size (BIGL, HSA null model) (MOLM-13 cells; [2]): −0.18
maxR test call (additive / antagonism / synergy) (MOLM-13 cells; [2]): **
Effect size (BIGL, HSA null model) (MOLM-13 cells; [3]): −0.25
maxR test call (additive / antagonism / synergy) (MOLM-13 cells; [3]): **
Effect size (BIGL, HSA null model) (MOLM-13 cells; Compound 51 0.05 μM, Decitabine 1.5 μM, Venetoclax 0.02 μM): −0.05
Effect size (BIGL, HSA null model) (MOLM-13 cells; Compound 51 0.05 μM, Decitabine 3 μM, Venetoclax 0.2 μM): −0.03
Effect size (BIGL, HSA null model) (MOLM-13 cells; Compound 51 0.1 μM, Decitabine 0.0015 μM, Venetoclax 0.0001 μM): 0.01
Effect size (BIGL, HSA null model) (MOLM-13 cells; [4]): −0.16
maxR test call (additive / antagonism / synergy) (MOLM-13 cells; [4]): **
Effect size (BIGL, HSA null model) (MOLM-13 cells; [5]): −0.27
maxR test call (additive / antagonism / synergy) (MOLM-13 cells; [5]): **
Effect size (BIGL, HSA null model) (MOLM-13 cells; Compound 51 0.1 μM, Decitabine 1.5 μM, Venetoclax 0.02 μM): −0.05
Effect size (BIGL, HSA null model) (MOLM-13 cells; Compound 51 0.1 μM, Decitabine 3 μM, Venetoclax 0.2 μM): −0.03
Effect size (BIGL, HSA null model) (MOLM-13 cells; Compound 51 1 μM, Decitabine 0.0015 μM, Venetoclax 0.0001 μM): 0.05
Effect size (BIGL, HSA null model) (MOLM-13 cells; Compound 51 1 μM, Decitabine 0.015 μM, Venetoclax 0.001 μM): −0.12
Effect size (BIGL, HSA null model) (MOLM-13 cells; [6]): −0.28
maxR test call (additive / antagonism / synergy) (MOLM-13 cells; [6]): **
Effect size (BIGL, HSA null model) (MOLM-13 cells; Compound 51 1 μM, Decitabine 1.5 μM, Venetoclax 0.02 μM): −0.05
Effect size (BIGL, HSA null model) (MOLM-13 cells; Compound 51 1 μM, Decitabine 3 μM, Venetoclax 0.2 μM): −0.03
Effect size (BIGL, HSA null model) (MOLM-13 cells; Compound 51 10 μM, Decitabine 0.0015 μM, Venetoclax 0.0001 μM): −0.05
Effect size (BIGL, HSA null model) (MOLM-13 cells; [7]): −0.17
maxR test call (additive / antagonism / synergy) (MOLM-13 cells; [7]): **
Effect size (BIGL, HSA null model) (MOLM-13 cells; [8]): −0.29
maxR test call (additive / antagonism / synergy) (MOLM-13 cells; [8]): **
Effect size (BIGL, HSA null model) (MOLM-13 cells; Compound 51 10 μM, Decitabine 1.5 μM, Venetoclax 0.02 μM): −0.05
Effect size (BIGL, HSA null model) (MOLM-13 cells; Compound 51 10 μM, Decitabine 3 μM, Venetoclax 0.2 μM): −0.03
combination effect on proliferation (in words) (MOLM-13 cells; pairwise matrix of decitabine and Compound 51 in the presence of Venetoclax, MOLM-13, 6-day CellTiter-Glo): synergistically cytotoxic
lifespan, Compound 51 in combination with venetoclax compared to venetoclax alone ([1]; MOLM-13 tumor-bearing mice): statistically significant increased lifespan
lifespan, Compound 51 in combination with venetoclax plus azacitidine compared to doublet venetoclax plus azacitidine ([1]; MOLM-13 tumor-bearing mice): statistically significant increased lifespan
% ILS (increased life span) ([1]; NSG mice with established MOLM-13 tumors, 4 weeks treatment, azacitidine 2 mg/kg ip QD × 7, venetoclax 100 mg/kg po QD × 28, Compound 51 2 mg/kg po QD × 28 (Table 6)): 5%
